From patent publication US9012166B2, “Method for assaying histone methylation enzyme activity” (Kyushu Institute of Technology, priority 2010, dated 2015)

How the values were obtained:
G9a = target: T1, G9a (Mus musculus, UniProt Q9Z148); assay: Western blot evaluation of histone methyltransferase inhibitor, G9a; assay type: biochemical; conditions: FIG. 17
T1 sequence (Q9Z148 1-1263): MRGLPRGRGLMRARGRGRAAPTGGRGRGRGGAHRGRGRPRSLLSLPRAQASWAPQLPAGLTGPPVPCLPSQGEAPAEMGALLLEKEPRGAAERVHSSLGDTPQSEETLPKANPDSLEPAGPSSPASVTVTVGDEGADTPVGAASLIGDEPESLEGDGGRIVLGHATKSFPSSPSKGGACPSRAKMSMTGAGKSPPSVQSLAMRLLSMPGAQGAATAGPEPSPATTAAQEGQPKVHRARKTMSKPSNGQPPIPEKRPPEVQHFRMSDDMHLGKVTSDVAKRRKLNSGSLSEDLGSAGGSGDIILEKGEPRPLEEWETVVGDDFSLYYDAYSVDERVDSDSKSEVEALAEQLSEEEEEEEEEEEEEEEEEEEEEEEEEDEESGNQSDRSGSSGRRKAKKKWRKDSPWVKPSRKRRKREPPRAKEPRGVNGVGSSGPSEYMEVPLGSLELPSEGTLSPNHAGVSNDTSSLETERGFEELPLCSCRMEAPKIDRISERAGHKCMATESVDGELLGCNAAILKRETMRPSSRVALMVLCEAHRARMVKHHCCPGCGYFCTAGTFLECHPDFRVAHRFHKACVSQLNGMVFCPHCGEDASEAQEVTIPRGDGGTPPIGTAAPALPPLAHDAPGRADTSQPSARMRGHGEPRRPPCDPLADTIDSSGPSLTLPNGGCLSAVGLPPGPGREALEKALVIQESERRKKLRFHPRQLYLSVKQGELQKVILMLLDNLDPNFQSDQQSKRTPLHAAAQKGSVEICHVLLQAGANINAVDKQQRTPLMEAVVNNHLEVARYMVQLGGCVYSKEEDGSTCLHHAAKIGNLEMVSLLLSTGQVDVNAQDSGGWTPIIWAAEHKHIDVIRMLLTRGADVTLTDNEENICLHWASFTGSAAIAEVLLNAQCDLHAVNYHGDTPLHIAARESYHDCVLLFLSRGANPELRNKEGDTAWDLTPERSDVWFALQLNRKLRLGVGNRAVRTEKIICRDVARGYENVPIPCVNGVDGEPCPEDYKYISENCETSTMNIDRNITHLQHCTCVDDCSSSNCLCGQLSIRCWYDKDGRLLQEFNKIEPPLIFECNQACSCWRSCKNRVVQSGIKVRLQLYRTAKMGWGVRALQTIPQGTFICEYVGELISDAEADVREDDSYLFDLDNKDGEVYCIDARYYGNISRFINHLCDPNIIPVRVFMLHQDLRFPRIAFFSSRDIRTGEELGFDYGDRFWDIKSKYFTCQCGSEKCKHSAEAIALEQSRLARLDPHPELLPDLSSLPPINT
Procedure: To examine whether the activity of a histone methyltransferase inhibitor could be evaluated by an assay for measuring histone methyltransferase activity using a peptidyl MCA, the assay for measuring histone methyltransferase activity was attempted. However, the activity of gliotoxin as a histone methyltransferase inhibitor was evaluated by Western blot, prior to the assay for measuring histone methyltransferase activity. Gliotoxin is known not to inhibit the methylation activity of Set9 but to inhibit the methylation activity of G9a. […] The following assay for measuring histone methyltransferase activity was carried out in order to examine whether the same results as those from the Western blot could also be obtained from the assay for measuring histone methyltransferase activity.

trypsin = assay: LC/MS analysis of reaction between substrate compound and trypsin; assay type: biochemical; conditions: Example 3; 37° C., 15 minutes
Procedure: Distilled water was added to 10 μL of 2×HMT buffer (100 mM Tris-HCl (pH 8.5), 20 mM MgCl2, 40 mM KCl, 20 mM 2-mercaptoethanol, 500 mM sucrose) and 1 μL of a BocLysMCA solution to adjust the total volume to 20 μL. To the resultant solution was added 30 μL of a peptidase solution (20 mg/mL trypsin or 20 mAU/mL lysyl endopeptidase), which was then mixed and incubated at 37° C. for 15 minutes. Then, the solution was applied to a liquid chromatograph mass spectrometer (LC/MS) for analysis. Analysis was performed by the same method as that for the above analysis except for using monomethylated BocLysMCA (i.e., “BocLys(Me)MCA”), dimethylated BocLysMCA (i.e., “BocLys(Me)2MCA”), or trimethylated BocLysMCA (i.e., “BocLys(Me)3MCA”) in place of BocLysMCA. Analysis was also carried out by the same method except for using, in place of the above-described peptidase solution, an equal volume of distilled water.

| Structure (SMILES) | inhibition of the methylation of G9a (Western blot) (G9a) | hydrolysis by trypsin (LC/MS peaks) (trypsin) |
| --- | --- | --- |
| CN1C(=O)[C@]23CC4=CC=C[C@H](O)[C@H]4N2C(=O)[C@@]1(CO)SS3 [gliotoxin] | inhibited |  |
| Cc1cc(=O)oc2cc(NC(=O)C(CCCCN)NC(=O)OC(C)(C)C)ccc12 (centres unmarked) [BocLysMCA, Boc-K-MCA] |  | most BocLysMCA was hydrolyzed |
